Read-outs that look alike come from different tables or passages of the source.
Legend:
[1] = target: BTK (Homo sapiens, UniProt Q06187); assay: Degradation of BTK protein in Namalwa cells (Western blot; DC50, Dmax); conditions: for DC50: cell line not given
[2] = test system: Mino cells; assay: Antiproliferative effect, MTS cell viability assay, Mino cells; type: cell-based; conditions: Homo sapiens, MINO, Mino mantle cell lymphoma cells; read-out: IC50 (anti-proliferation) Mino cells
In short: (§1)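 Absorbance at 490 nm of formazan, formed by metabolically active cells from MTS tetrazolium, served as the viability measure after a 72 h treatment across a 0.001–10 μM concentration series plus untreated control.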

[3] = test system: JeKo-1 cells; assay: Antiproliferative effect, MTS cell viability assay, JeKo-1 cells; type: cell-based; conditions: Homo sapiens; JeKo-1 mantle cell lymphoma cells; read-out: IC50 (anti-proliferation) JeKO-1 cells
In short: as §1

[4] = read-out: DC50 (BTK degradation), concentration giving 50% reduction of BTK expression level
[5] = read-out: Dmax (BTK degradation)

Sequence of BTK (Q06187 whole entry): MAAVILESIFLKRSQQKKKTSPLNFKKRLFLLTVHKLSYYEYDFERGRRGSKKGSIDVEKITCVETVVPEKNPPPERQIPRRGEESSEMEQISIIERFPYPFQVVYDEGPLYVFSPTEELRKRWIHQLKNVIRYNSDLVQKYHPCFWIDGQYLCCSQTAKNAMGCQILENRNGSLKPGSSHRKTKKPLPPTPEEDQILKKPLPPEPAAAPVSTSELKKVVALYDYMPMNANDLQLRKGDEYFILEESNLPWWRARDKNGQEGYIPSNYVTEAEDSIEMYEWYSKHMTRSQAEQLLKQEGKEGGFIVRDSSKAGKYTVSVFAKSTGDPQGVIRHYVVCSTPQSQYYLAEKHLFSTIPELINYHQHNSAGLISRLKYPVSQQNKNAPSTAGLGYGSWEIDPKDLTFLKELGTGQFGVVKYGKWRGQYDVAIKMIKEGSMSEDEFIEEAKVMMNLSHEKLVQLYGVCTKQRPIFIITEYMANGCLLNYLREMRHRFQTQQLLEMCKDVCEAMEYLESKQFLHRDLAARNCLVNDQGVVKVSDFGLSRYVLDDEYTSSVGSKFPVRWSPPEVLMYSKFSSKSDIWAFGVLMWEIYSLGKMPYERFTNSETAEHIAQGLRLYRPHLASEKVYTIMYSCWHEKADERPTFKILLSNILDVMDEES

Structure (SMILES) | Dmax [1] [%] | DC50 ([1]; BTK degradation) [nM] | IC50 [2] [nM] | IC50 [3] [nM] | DC50 [1, 4] [nM] | Dmax [1, 5] [%]
Nc1ncnc2c1c(-c1ccc(Oc3ccccc3)cc1)nn2C1CCN(C2CCN(C(=O)N3CCC(CCN4CCN(c5ccc6c(c5)CN(C5CCC(=O)NC5=O)C6=O)CC4)CC3)CC2)CC1 (stereo not shown) [Compound 252, 3-(5-(4-(2-(1-(4-(4-amino-3-(4-phenoxyphenyl)-1H-pyrazolo[3,4-d]pyrimidin-1-yl)-[1,4′-bipiperidine]-1′-carbonyl)piperidin-4-yl)ethyl)piperazin-1-yl)-1-oxoisoindolin-2-yl)piperidine-2,6-dione] | > 90 | 10 to 50 | < 1000 | < 1000 |  | 
Nc1ncnc2c1c(-c1ccc(Oc3ccccc3)cc1)nn2C1CCN(C(=O)N2CC(N3CCN(c4ccc5c(c4)C(=O)N([C@H]4CCC(=O)NC4=O)C5=O)CC3)C2)CC1 [Compound 483, (S)-5-(4-(1-(4-(4-amino-3-(4-phenoxyphenyl)-1H-pyrazolo[3,4-b]pyrimidin-1-yl)piperidine-1-carbonyl)azetidin-3-yl)piperazin-1-yl)-2-(2,6-dioxopiperidin-3-yl)isoindoline-1,3-dione] |  |  | < 1000 | 1000 to 10000 | < 10 | > 90
NC(=O)c1c(-c2ccc(Oc3ccccc3)cc2)nn2c1NCC[C@H]2C1CCN(CC2CCN(C(=O)N3CCN(CC4CCN(c5ccc6c(c5)C(=O)N(C5CCC(=O)NC5=O)C6=O)CC4)CC3)CC2)CC1 (stereo partly drawn) [Compound 411, (7S)-7-(1-((1-(4-((1-(2-(2,6-dioxopiperidin-3-yl)-1,3-dioxoisoindolin-5-yl)piperidin-4-yl)methyl)piperazine-1-carbonyl)piperidin-4-yl)methyl)piperidin-4-yl)-2-(4-phenoxyphenyl)-4,5,6,7-tetrahydropyrazolo[1,5-a]pyrimidine-3-carboxamide] |  |  | < 1000 | 1000 to 10000 | 10 to 50 | > 90
Nc1ncnc2c1c(-c1ccc(Oc3ccccc3)cc1)nn2C1CCN(C2CCN(CC3CCN(c4ccc(NC5CCC(=O)NC5=O)cc4)CC3)CC2)CC1 (stereo not shown) [Compound 578, 3-((4-(4-((4-(4-amino-3-(4-phenoxyphenyl)-1H-pyrazolo[3,4-d]pyrimidin-1-yl)-[1,4′-bipiperidin]-1′-yl)methyl)piperidin-1-yl)phenyl)amino)piperidine-2,6-dione] |  |  | 1000 to 10000 | 1000 to 10000 | 10 to 50 | > 90
NC(=O)c1c(-c2ccc(Oc3ccccc3)cc2)nn2c1NCCC2C1CCN(CC2CCN(C(=O)N3CCN(CC4CCN(c5ccc6c(c5)C(=O)N(C5CCC(=O)NC5=O)C6=O)CC4)CC3)CC2)CC1 (stereo not shown) [Compound 371] | > 90 | 10 to 50 | < 1000 | < 1000 |  | 
NC1=NC=NC2C1C(c1ccc(Oc3ccccc3)cc1)=NN2C1CCN(C(=O)N2CC(C3CN(c4ccc5c(c4)CN([C@@H]4CCC(=O)NC4=O)C5=O)C3)C2)CC1 (stereo partly drawn) [Compound 496, (3R)-3-(5-(1′-(4-(4-amino-3-(4-phenoxyphenyl)-3a,7a-dihydro-1H-pyrazolo[3,4-d]pyrimidin-1-yl)piperidine-1-carbonyl)-[3,3′-biazetidin]-1-yl)-1-oxoisoindolin-2-yl)piperidine-2,6-dione] |  |  | < 1000 | < 1000 | < 10 | > 90
Nc1ncnc2c1c(-c1ccc(Oc3ccccc3)cc1)nn2C1CCN(C2CCN(CC3CN(c4ccc5c(c4)CN(C4CCC(=O)NC4=O)C5=O)C3)CC2)CC1 (stereo not shown) [Compound 434, 3-(5-(3-((4-(4-amino-3-(4-phenoxyphenyl)-1H-pyrazolo[3,4-d]pyrimidin-1-yl)-[1,4′-bipiperidin]-1′-yl)methyl)azetidin-1-yl)-1-oxoisoindolin-2-yl)piperidine-2,6-dione] |  |  | < 1000 | 1000 to 10000 | 10 to 50 | > 90
